Laboratory results published in patent publication US5326902A, “Oxyalkyne compounds, pharmaceutical compositions containing them and processes for preparing such compounds and compositions” (Gruenenthal GmbH, priority 1992, dated 1994).

What was measured:
5-lipoxygenase [1] = target: T1, 5-lipoxygenase (Rattus norvegicus, UniProt P12527); experiment: Inhibition of 5-lipoxygenase in RBL-1-cells; format: cell-based; details: 20 μM [14C]-arachidonic acid, 20 μM calcium ionophore A 23 187, 10 minutes
T1 construct: endogenous in cells; host or cells: RBL-1 cells (rat basophilic leukemia)
T1 sequence (P12527 1-673): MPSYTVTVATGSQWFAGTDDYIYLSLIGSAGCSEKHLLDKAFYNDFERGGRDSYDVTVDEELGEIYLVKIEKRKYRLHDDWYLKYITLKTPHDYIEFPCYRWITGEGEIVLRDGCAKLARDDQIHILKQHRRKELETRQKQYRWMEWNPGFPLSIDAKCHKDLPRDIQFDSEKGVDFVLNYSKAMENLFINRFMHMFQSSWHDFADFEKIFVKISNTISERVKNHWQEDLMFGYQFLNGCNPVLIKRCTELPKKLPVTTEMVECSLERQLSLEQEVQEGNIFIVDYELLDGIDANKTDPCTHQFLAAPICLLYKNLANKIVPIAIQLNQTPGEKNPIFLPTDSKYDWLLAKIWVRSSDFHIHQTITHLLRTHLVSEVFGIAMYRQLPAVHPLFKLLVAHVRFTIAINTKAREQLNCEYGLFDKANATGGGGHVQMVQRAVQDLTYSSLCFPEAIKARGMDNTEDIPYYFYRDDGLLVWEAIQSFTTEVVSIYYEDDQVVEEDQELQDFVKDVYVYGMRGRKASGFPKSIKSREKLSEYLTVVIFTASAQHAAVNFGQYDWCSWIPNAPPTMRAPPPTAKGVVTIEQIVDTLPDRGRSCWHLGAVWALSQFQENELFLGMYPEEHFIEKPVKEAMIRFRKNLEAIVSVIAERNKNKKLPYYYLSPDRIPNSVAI
Protocol: To determine the inhibition of 5-lipoxygenase, rat basophilic leukemia cells (RBL-1-cells) were cultured in vitro, harvested by centrifugation, washed with 50 mM potassium phosphate buffer of pH 7.4, and then suspended in this buffer at 1×10^7 cells/ml. Indomethacin (10 μM) and calcium chloride (2 mM) were added to 1 ml portions of this suspension, and then the mixture was incubated either in the presence of a compound according to the invention in a concentration range of from 0,1 μM to 100 μM or in the presence of a solvent (ethanol and/or dimethyl sulfoxide) for 3 minutes and thereafter with 20 μM of [^14 C]-arachidonic acid and 20 μM of calcium ionophore A 23 187 for 10 minutes. The reaction was stopped by adding 20 μl of glacial acetic acid, and then the mixture was extracted with ethyl acetate to isolate the metabolites of arachidonic acid formed by the enzymatic action of 5-lipoxygenase. These were separated by thin layer chromatography using a solvent mixture known to be suitable for lipoxygenase products [c.f. Jakschik et al., Biochem. Biophys. Res. Commun. 102, 624 (1981)].
The distribution of radioactivity among the different metabolites of arachidonic acid was measured using a TLC Linear Analyzer. By correlating the percentage amounts of the products formed under the action of 5-lipoxygenase (5HETE, isomers of LTB4) in the absence as well as in the presence of different concentrations of compounds according to the invention, the IC50 -values, i.e. the concentrations which cause a 50% inhibition of 5-lipoxygenase, were determined graphically from semilogarithmic plots.

[2] = test system: bronchoconstriction elicited by ovalbumin; experiment: Allergen-induced bronchoconstriction in guinea pigs (Konzett-Rossler); format: in vivo, guinea pig; details: Cavia porcellus, 1 h; oral, 60 minutes before ovalbumin (0.2 mg/kg intravenous); passively sensitized guinea pigs; read-out: ED40-Value (40% average inhibition of the bronchoconstriction elicited by ovalbumin)
Protocol: The anti-asthmatic effect of compounds according to the invention was tested in anesthetized and ventilated guinea pigs. To induce an asthmatic reaction, the animals were passively sensitized by a single intraperitoneal injection of anti-ovalbumin serum. After 48 hours, the asthmatic reaction was elicited by intravenous challenge with 0.2 mg/kg of ovalbumin. The immediately resulting bronchoconstriction was measured as an increase in intratracheal pressure. Effects caused by histamine, serotonin and sympathic counterreaction were eliminated by intravenous pretreatment with 2.15 mg/kg of mepyramine, 46.4 μg/kg of propranolol, 4.64 mg/kg of atropine and 1 mg/kg of methysergide, all administered 5 minutes before challenge. Compounds according to the invention were administered orally 60 minutes before the administration of ovalbumin. The following […] for the inhibition of the bronchoconstriction elicited by ovalbumin, i.e. the effective doses causing a 40% average inhibition of the bronchoconstriction, were determined: […]

5-lipoxygenase [3] = target: T1, 5-lipoxygenase; experiment: Inhibition of Cell-free 5-lipoxygenase from RBL-1-cells (polarographic, 10,000 × g supernatant); format: biochemical; details: 10,000 × g supernatant of homogenized RBL-1-cells; arachidonic acid 75 μM; 35° C.; calculated IC50
Protocol: Cell-free 5-lipoxygenase was polarographically measured from 10,000 × g supernatant of homogenized rat basophilic leucemia cells (M. Haurand & L. Flohe in Biol. Chem. Hoppe-Seyler 369, 133 to 142 (1988)). After preincubation of the 10,000 × g supernatant with arachidonic acid (75 μM), ATP (adenosine triphosphate; 4 mM), reduced glutathione (4 mM), and either a compound according to the invention (0.1 to 100 μM) or a solvent (ethanol and/or dimethyl sulfoxide) at 35° C. for 5 minutes, the lipoxygenase reaction was initiated by addition of calcium chloride (3 mM) and simultaneously recorded.
The activity of 5-lipoxygenase was determined from the difference in the pO2 -decrease before and after addition of calcium chloride. The evaluation included the initial rate of the reaction after the lag-phase as well as the duration of the lag-phase. In the concentration range of from 3 to 50 μM, the test substances induced lag-phases between 20 and 60 seconds.

12-lipoxygenase = target: T2, 12-lipoxygenase (Homo sapiens, UniProt P18054); experiment: Inhibition of 12-lipoxygenase in human blood; format: cell-based; parameters: 3 ml aliquots of human whole blood treated with heparin; from tissue; host or cells: human whole blood (heparinized); details: human whole blood; calcium ionophore A 23 187 15 μg/ml; 37° C., 30 minutes; 12-HETE by HPLC
T2 sequence (P18054 1-663): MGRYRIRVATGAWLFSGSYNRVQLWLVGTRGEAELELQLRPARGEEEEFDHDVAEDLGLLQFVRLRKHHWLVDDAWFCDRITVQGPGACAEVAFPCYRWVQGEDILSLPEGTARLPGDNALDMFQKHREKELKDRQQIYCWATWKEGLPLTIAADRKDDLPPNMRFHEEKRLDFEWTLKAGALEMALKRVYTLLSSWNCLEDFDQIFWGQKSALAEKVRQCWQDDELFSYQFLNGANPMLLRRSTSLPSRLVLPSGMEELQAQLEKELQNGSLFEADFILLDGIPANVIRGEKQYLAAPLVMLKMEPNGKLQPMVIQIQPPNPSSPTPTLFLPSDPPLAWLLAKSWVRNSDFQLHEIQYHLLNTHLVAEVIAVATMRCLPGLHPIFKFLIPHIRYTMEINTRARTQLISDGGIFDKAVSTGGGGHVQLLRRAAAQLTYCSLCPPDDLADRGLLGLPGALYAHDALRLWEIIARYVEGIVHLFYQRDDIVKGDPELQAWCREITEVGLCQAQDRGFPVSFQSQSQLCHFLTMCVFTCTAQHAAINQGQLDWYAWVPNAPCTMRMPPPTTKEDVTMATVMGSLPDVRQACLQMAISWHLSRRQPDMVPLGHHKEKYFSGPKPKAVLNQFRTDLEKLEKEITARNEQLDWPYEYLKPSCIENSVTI
Protocol: 3 ml aliquots of human whole blood treated with heparin were incubated either with a compound according to the invention or with dimethyl sulfoxide at 37° C. for 5 minutes. Then 12-lipoxygenase was activated by addition of calcium ionophore A 23 187 (15 μg/ml blood). After incubation at 37° C. for 30 minutes and centrifugation, cell-free plasma was obtained. Plasma protein was precipitated by addition of 2 ml of ethanol per ml of plasma and then separated by centrifugation. After adjusting the ethanol content in the supernatant with water to 10% by volume, the 12-lipoxygenase product 12-HETE was enriched by solid phase extraction using an octadecyl silica column. The methanolic eluate was evaporated to dryness, diluted in 40% by volume of methanol, and the 12-HETE-content was determined by HPLC. The IC50 -values of the compounds of the invention prepared according to Examples 1, 8 and 16 were 2, 4 and 3 μmolar, respectively.

5-lipoxygenase [4] = experiment: Inhibition of 5-lipoxygenase in Rat Blood After Oral Administration (ex vivo iLTB4-formation); details: male Wistar rats, one hour after administration
Protocol: The bioavailability of the compounds of formula I as 5-lipoxygenase inhibitors was characterized by means of an ex vivo biochemical assay method described by Tateson et al. in Brit. J. Pharmacol. 94, 528 (1988): A compound of formula I was orally administered to male rats (Wistar strain) at a dose of 21.5 mg/kg. After lethal CO2 -narcosis one hour after administration, the rats were bled by heart puncture with added heparin as an anticoagulant. Aliquots of the whole blood were incubated at 37° C. for 30 minutes in a water bath with calcium ionophore A 23 187 at an end concentration of 15 μg/ml. At the end of the incubation, the samples were centrifuged, and the concentration of the immunoreactive LTB4 (iLTB4) in aliquots of cell-free plasma was determined by radioimmunoassay (3H-LTB4 -RIA, Amersham). To enable calculation of the inhibition in percent of ex vivo iLTB4 -formation in whole rat blood treated with a compound according to the invention, rats orally treated with an appropriate vehicle solution were included in all experiments, and aliquots of their blood were run in parallel and were processed in the same way as described. The average iLTB4 -content of the plasma of the vehicletreated rats served as a 100% value. The activity in percent of the ex vivo iLTB4 -formation after oral administration of a compound according to the invention was calculated by dividing the average value of the iLTB4 -contents in ng iLTB4 /ml of the group treated with a compound according to the invention by the average value of the iLTB4 -contents in ng iLTB4 /ml of the vehicle treated group and subsequent multiplication by a factor of 100. The respective inhibition in percent was calculated by subtracting the activity in percent from 100.

| SMILES | IC50 (5-lipoxygenase [1]) [µM] | ED40 [2] [mg/kg] | IC50 (5-lipoxygenase [3]) [µM] | IC50 (12-lipoxygenase) [µM] | Inhibition [%] of ex vivo iLTB4-formation (5-lipoxygenase [4]; dose 10 mg/kg, oral) [%] | Inhibition [%] of ex vivo iLTB4-formation (5-lipoxygenase [4]; 21.5 mg/kg oral) [%] |
| --- | --- | --- | --- | --- | --- | --- |
| CC(=O)N(O)Cc1ccc(C(O)C#Cc2ccccc2)cc1 (single isomer, unassigned; (-)) [Example 3, (-)-N-Hydroxy-N-[4-[1-hydroxy-3-phenyl-prop-2-yn-1-yl]benzyl]acetamide] | 5 | 9 | – | – | – | – |
| COc1cccc(C#CC(O)c2ccc(CN(O)C(N)=O)cc2)c1 (stereo not drawn) [Example 26, N-Hydroxy-N-[4-[1-hydroxy-3-(3-methoxyphenyl)prop-2-yn-1-yl]benzyl]urea] | 4 | 17 | – | – | – | – |
| CC(=O)N(O)Cc1ccc(C(O)C#Cc2cccs2)cc1 (stereo not drawn) [Example 16, N-Hydroxy-N-[4-[1-hydroxy-3-(2-thienyl)prop-2-yn-1-yl]benzyl]acetamide] | 3 | – | 6 | 3 | – | – |
| NC(=O)N(O)Cc1ccc(C(O)C#Cc2ccccc2Cl)cc1 (stereo not drawn) [Example 22, N-Hydroxy-N-[4-[1-hydroxy-3-(2-chlorophenyl)prop-2-yn-1-yl]benzyl]urea] | 4 | – | 8 | – | 83 | – |
| NC(=O)N(O)Cc1ccc(C(O)C#Cc2ccccc2)cc1 (stereo not drawn) [Example 8, N-Hydroxy-N-[4-[1-hydroxy-3-phenyl-prop-2-yn-1-yl]benzyl]urea] | 7 | – | 8 | 4 | – | 65 |
| CC(=O)N(O)Cc1ccc(C(O)C#Cc2cccc3ccccc23)cc1 (stereo not drawn) [Example 15, N-Hydroxy-N-[4-[1-hydroxy-3-(1-naphthyl)prop-2-yn-1-yl]benzyl]acetamide] | 3 | – | 7 | – | – | 71 |
| NC(=O)N(O)Cc1ccc(C(O)C#Cc2ccsc2)cc1 (stereo not drawn) [Example 28, N-Hydroxy-N-[4-[1-hydroxy-3-(3-thienyl)prop-2-yn-1-yl]benzyl]urea] | 4 | 17 | – | – | – | – |
| NC(=O)N(O)Cc1ccc(C(O)C#Cc2ccc(F)cc2)cc1 (racemic) [Example 25, N-Hydroxy-N-[4-[1-hydroxy-3-(4-fluorophenyl)prop-2-yn-1-yl]benzyl]urea] | 3 | 10 | 3 | – | – | – |
| NC(=O)N(O)Cc1ccc(C(O)C#Cc2cccc(Cl)c2)cc1 (stereo not drawn) [Example 23, N-Hydroxy-N-[4-[1-hydroxy-3-(3-chlorophenyl)prop-2-yn-1-yl]benzyl]urea] | 4 | 18 | – | – | – | – |
| CC(=O)N(O)Cc1ccc(C(O)C#Cc2ccc(Cl)cc2)cc1 (stereo not drawn) [Example 11, N-Hydroxy-N-[4-[1-hydroxy-3-(4-chlorophenyl)prop-2-yn-1-yl]benzyl]acetamide] | 8 | – | – | – | 95 | – |
| CC(=O)N(O)Cc1ccc(C(O)C#Cc2cccc(Cl)c2)cc1 (stereo not drawn) [Example 10, N-Hydroxy-N-[4-[1-hydroxy-3-(3-chlorophenyl)prop-2-yn-1-yl]benzyl]acetamide] | 4 | – | – | – | – | 75 |
| CC(=O)N(O)Cc1ccc(C(O)C#Cc2ccsc2)cc1 (stereo not drawn) [Example 17, N-Hydroxy-N-[4-[1-hydroxy-3-(3-thienyl)prop-2-yn-1-yl]benzyl]acetamide] | 5 | – | – | – | – | 77 |
